Legend:
OCC1-SEAP-12 cells = test: DNA laddering on agarose gel (Example III); assay type: cell-based, human; conditions: 48 hr and 72 hr
Method: (§1) Following 48 hr to 72 hr treatment incubations, cells were suspended into culture medium and pelleted in tubes. DNA was isolated from collected cells using a Puregene™ DNA isolation kit (Gentra Systems, Minneapolis, Minn.). The quantity and purity of nucleic acid preparations were estimated by measuring the optical density of each sample A260/A280). DNA preparations (10 μg/well) were loaded onto 1.2% agarose gels and visualized with ethidium bromide stain.

[1] = tested on: OCC1-SEAP intraperitoneal tumors; test: Nude mouse intraperitoneal OCC1-SEAP tumor model, plasma SEAP (Example I); assay type: in vivo, athymic nude mice; conditions: established tumors; carboplatin 60 mg/kg three times over 4 days
Method: Athymic nude mice (Nu/Nu; Charles River Laboratories, Wilmington, Mass.) weighing about 25 g were used for in vivo studies.
Three mice were injected intraperitoneally with 1×10^7 OCC1-SEAP-12 cells. The experimental treatments began after 1 week. […] Alternatively, four mice with well-developed tumors (2-4 weeks after injection) were treated with a high dose of carboplatin (60 mg/kg) three times over a period of 4 days. After death all visible intraperitoneal tumors were dissected out and weighed.
Blood samples were collected from saphenous vein lancings three times per week into heparinized capillary tubes. The capillary tubes were centrifuged and the plasma samples were frozen at −20° C. until the time of SEAP assay. Blood samples were taken for SEAP assay from the mice within 24 hours of death 2-3 weeks after intraperitoneal injection of OCC1-SEAP cells.
Blood plasma and cell culture medium samples were assayed for SEAP activity using the Great EscAPe SEAP fluorescence detection kit (Clontech Laboratories, Palo Alto, Calif.). SEAP is secreted at a constant rate by transfected tumor cells and distributed throughout the body or into the culture medium. SEAP is heat stable, so any endogenous alkaline phosphatase activity in blood plasma is destroyed by heat treatment of the samples (65° C. for 30 minutes) during the assay. The SEAP enzyme in each sample acts on the substrate 4-methylumbelliferyl phosphate during a 1 hour incubation at room temperature to produce a fluorescent product with excitation and emission peaks at 360 and 449 nm, respectively. A fluorimeter is then used to measure SEAP activity. The intra-assay and inter-assay coefficients of variation were 2.5% and 18.8%, respectively. Blood plasma samples were diluted 1:100 prior to the assay to bring values within the linear range of the standard curve.

caspase 3 = test: Western blot for active caspase 3 (Example III); assay type: cell-based, human; conditions: LY294002 10 μM, carboplatin 50 μg/ml
Method: The OCC1-SEAP-12 cells were grown to 80% confluence. Cultures were incubated in DMEM plus 0.1% bovine serum albumin (BSA) and 0.1% BCS to which either vehicle control, carboplatin (0-50 μg/ml), LY294002 (0-20 μM) or combinations of these treatments. Following 24, 48 or 72 hr cells were lysed with sample buffer (62.5 mM Tris-HCl, pH 6.8, 2% SDS, 5% glycerol, […], 0.5% β-mercaptoethanol). Total cell lysates were subjected to SDS polyacrylamide gel electrophoresis 9 page) and transferred to PVDF membranes (Millipore, Bedford, Mass.). Membranes were immunoblotted with antibodies to both the phosphorylated and non-phosphorylated forms of […] (Cell Signaling Technology, Beverly, Mass.), or alternatively, with antibodies to cleaved and full length caspase-3 (Cell Signaling Technology, Beverly, Mass.).

OCC1-SEAP tumor = test: Nude mouse tumor model, intraperitoneal OCC1-SEAP cells, plasma SEAP (Example II); assay type: in vivo; conditions: carboplatin 60 mg/kg every other day for 5 days
Description: Athymic nude mice (NCR Nu/Nu) were either purchased from Taconic (Germantown, N.Y.) or bred in-house at Washington State University, Pullman, Wash. The OCC1-SEAP cells were collected in Hank's balanced salt solution and counted prior to injection. Treatments were initiated 7 to 10 days following an intraperitoneal inoculation of mice with 1×10^7 OCC1-SEAP cells, as described above, in Example I.
Stock solutions of carboplatin (paraplatin; Bristol-Myers Squibb, Princeton, N.J.) and TPL (Calbiochem, CA), were prepared in sterile filtered PBS and DMSO, respectively. Animals received intraperitoneal injections of either vehicle controlled (PBS containing 4% DMSO), or carboplatin (60 mg/kg), alone, or in combination with TPL (0-1.0 mg/kg), every other day for 5 days. Alternatively, TPL (0.15 mg/kg) was injected every day for 10 days. For these experiments, carboplatin was administered under the same schedule of every other day for 5 days. Some mice were also treated with 40 mg/kg of LY294002 every other day for 5 days, with an intraperitoneal injection in the presence of TPL and carboplatin. Blood samples were collected into capillary tubes from saphenous vein lancings at regular intervals during and following treatments. The capillary tubes were centrifuged and the plasma samples were frozen at −20° C., until the time of SEAP assay. The Washington State University Animal Care and Use Committee approved all procedures.
Blood plasma and cell culture medium samples were assayed for SEAP activity using the Great EscAPe SEAP fluorescence detection kit (Clontech Laboratories, Palo Alto, Calif.), as described above in Example I. Blood plasma samples were diluted 1:100, prior to the assay to bring values within the linear range of the standard curve. The intraassay and interassay coefficients of variation were 2.5% and 18.8%, respectively. In the case of the experiments in which mice were treated with a combination of TPL, LY294002 and carboplatin, there was some variation in the extent of tumor growth in the control mice. In order to better compare response to treatment across experiments, the SEAP assay data between experiments were normalized by dividing each data point by the overall mean of all SEAP measurements from that experiment and up, through day 18. The normalized data then reflect the relative tumor burden of each mouse, compared to others in the experimental group, and can be combined across experiments.

OCC1-SEAP cell cultures = test: DNA fragmentation (laddering) on agarose gel (Example II); assay type: cell-based, human; conditions: 48 hr; TPL 100 ng/ml, carboplatin 50 μg/ml
Method: as §1, with “h” for “hr”, “absorbance” for “optical density”, “(A260/A280).” for “A260/A280).”

caspase-3 = test: Western blot for active caspase-3 (Example II); assay type: cell-based, human; conditions: carboplatin alone

N.N.O=C([O-])C1(C(=O)[O-])CCC1.[Pt+2] [carboplatin]
DNA laddering (OCC1-SEAP-12 cells): observed
tumor burden by plasma SEAP levels [1]: transiently decreased the tumor burden
time at which active 17 kDa caspase 3 appears (caspase 3): 48 h
tumor burden vs vehicle control (FIG. 11) (OCC1-SEAP tumor; high dose, short duration: TPL 0.5 mg/kg): no significant difference
tumor burden as measured by SEAP levels vs vehicle control (FIG. 12) (OCC1-SEAP tumor; low dose, long duration: TPL 0.15 mg/kg every day for 10 days): no significant difference
DNA laddering (OCC1-SEAP cell cultures): evident
time until caspase-3 is activated post-treatment (caspase-3): 48 h

Source: patent publication US20110045102A1, “Cancer chemotherapy compositions comprising PI3K pathway modulators and triptolide” (priority 2005, published 2011)
